Here are results for 26 compounds from PubChem BioAssay AID256 (DTP/NCI, 2004).

“And” between values parts separate entries of the source, which are not always exact repeats. Equal entries are not always repeated. Toxic doses and inconclusive results are not listed.

The experiment deals with CD2F1 mice, L1210 leukemia ip, survival T/C. In words: NCI In Vivo Anticancer Drug Screen. Data for tumor model L1210 Leukemia (intraperitoneal) in CD2F1 (CDF1) mice. The settings on record: higher = longer survival. Put shortly:
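Ratio T/C, where T is the treated-group value and C the vehicle-dosed control value, from mice implanted with a transplantable tumor.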

Where [1] appears, read: endpoint: mean survival time, dose: 200.0 mg/kg/injection, schedule: Q01DX001 (ip), vehicle: saline with Tween-80.
[2] abbreviates: endpoint: mean survival time, dose: 400.0 mg/kg/injection, schedule: Q01DX001 (ip), vehicle: saline with Tween-80.
Where [3] appears, read: endpoint: mean survival time, dose: 100.0 mg/kg/injection, schedule: Q04DX003 (ip), vehicle: saline with Tween-80.
Setting [4] is: endpoint: mean survival time, dose: 200.0 mg/kg/injection, schedule: Q04DX003 (ip), vehicle: saline with Tween-80.
The mark [5] stands for this setting: endpoint: mean survival time, dose: 100.0 mg/kg/injection, schedule: Q01DX001 (ip), vehicle: saline with Tween-80.
[6] abbreviates: endpoint: mean survival time, dose: 25.0 mg/kg/injection, schedule: Q04DX003 (ip), vehicle: saline with Tween-80.
[7] abbreviates: endpoint: mean survival time, dose: 50.0 mg/kg/injection, schedule: Q04DX003 (ip), vehicle: saline with Tween-80.
The mark [8] stands for this setting: endpoint: mean survival time, dose: 400.0 mg/kg/injection, schedule: Q04DX003 (ip), vehicle: saline with Tween-80.
The mark [9] stands for this setting: endpoint: mean survival time, dose: 100.0 mg/kg/injection, schedule: Q01DX009 (ip), vehicle: saline with Tween-80.
Setting [10] is: endpoint: mean survival time, dose: 200.0 mg/kg/injection, schedule: Q01DX009 (ip), vehicle: saline with Tween-80.
Setting [11] is: endpoint: mean survival time, dose: 400.0 mg/kg/injection, schedule: Q01DX009 (ip), vehicle: saline with Tween-80.
The mark [12] stands for this setting: endpoint: mean survival time, dose: 100.0 mg/kg/injection, schedule: Q04DX002 (ip), vehicle: saline with Tween-80.
[13] abbreviates: endpoint: mean survival time, dose: 200.0 mg/kg/injection, schedule: Q04DX002 (ip), vehicle: saline with Tween-80.
The mark [14] stands for this setting: endpoint: mean survival time, dose: 25.0 mg/kg/injection, schedule: Q01DX009 (ip), vehicle: saline with Tween-80.
Where [15] appears, read: endpoint: mean survival time, dose: 50.0 mg/kg/injection, schedule: Q01DX009 (ip), vehicle: saline with Tween-80.
Where [16] appears, read: endpoint: mean survival time, dose: 75.0 mg/kg/injection, schedule: Q01DX001 (ip), vehicle: saline.

In the case of `CCOC(=O)C1=C(C)/C(=C/c2[n-]c(C)c(C(=O)OCC)c2C)N=C1C.CCOC(=O)C1=C(C)/C(=C/c2[n-]c(C)c(C(=O)OCC)c2C)N=C1C.[Co+2]`, the T/C runs as follows: (endpoint: mean survival time, dose: 50.0 mg/kg/injection, schedule: Q01DX001 (ip), vehicle: saline with Tween-80) 91 % of control; under setting [1], 87 % of control; under setting [2], 91 % of control.
As to `c1ccc2c(c1)nnn2-c1ccncc1`, the T/C under setting [3] was 91 % of control and the T/C under setting [4] is 104 % of control.
For `CC(=O)OCC(C)CCC1OC2CC3C4CCC5CC(OC(C)=O)CCC5(C)C4CCC3(C)C2C1C` (stereo not drawn), the T/C is, setting by setting: under setting [5], 100 % of control; under setting [1], 101 % of control; under setting [2], 94 % of control.
Take `CC1(C)N=C(N)N=C(N)N1c1ccc(Cl)c(C(F)(F)F)c1`: the T/C is, setting by setting: under setting [6], 109 % of control; under setting [7], 124 % of control.
`C=CCCCCCCCCC(=O)N(CCOC)CCOC`: the T/C under setting [3] was 93 % of control, the T/C under setting [4] is 94 % of control and the T/C under setting [8] was 98 % of control.
Regarding `CCCCOC(=O)c1ccccc1Cl`, the T/C (endpoint: mean survival time, dose: 50.0 mg/kg/injection, schedule: Q04DX003 (ip), vehicle: Klucel (hydroxypropylcellulose) (HPC)) was 94 % of control; the T/C (endpoint: mean survival time, dose: 100.0 mg/kg/injection, schedule: Q04DX003 (ip), vehicle: Klucel (hydroxypropylcellulose) (HPC)) was 100 % of control; the T/C (endpoint: mean survival time, dose: 200.0 mg/kg/injection, schedule: Q04DX003 (ip), vehicle: Klucel (hydroxypropylcellulose) (HPC)) was 102 % of control.
Turning to `Cc1ccc2[nH]c3c(c2c1)CSCC3`, the T/C under setting [9] is 104 % of control, the T/C under setting [10] is 102 % of control and the T/C under setting [11] is 102 % of control.
Regarding `Cc1ccc(S(=O)(=O)NN2C(=O)c3ccccc3C2=O)cc1`, the T/C reads like this: (endpoint: mean survival time, dose: 25.0 mg/kg/injection, schedule: Q04DX002 (ip), vehicle: saline with Tween-80) 96 % of control; (endpoint: mean survival time, dose: 50.0 mg/kg/injection, schedule: Q04DX002 (ip), vehicle: saline with Tween-80) 96 % of control; under setting [12], 100 % of control; under setting [13], 96 % of control.
Take `O=C(O)CN(CC(=O)O)C1CCCCC1N(CC(=O)O)CC(=O)O.[Cl][Pt+2][Cl]` (stereo not drawn): the T/C was 96 % of control (endpoint: median survival time, dose: 10.0 mg/kg/injection, schedule: Q04DX003 (ip), vehicle: saline); 106 % of control (endpoint: median survival time, dose: 20.0 mg/kg/injection, schedule: Q04DX003 (ip), vehicle: saline); 103 % of control and 104 % of control (endpoint: median survival time, dose: 40.0 mg/kg/injection, schedule: Q04DX003 (ip), vehicle: saline); 106 % of control and 109 % of control (endpoint: median survival time, dose: 80.0 mg/kg/injection, schedule: Q04DX003 (ip), vehicle: saline).
With `NC(=S)c1cccc(OCCOc2cccc3ccccc23)c1`, the T/C was 92 % of control under setting [14], 95 % of control under setting [15] and 88 % of control under setting [9].
Turning to `COC(=O)Nc1ccc(C)cc1[N+](=O)[O-]`, the T/C is, setting by setting: (endpoint: mean survival time, dose: 100.0 mg/kg/injection, schedule: Q04DX003 (ip), vehicle: other) 106 % of control; (endpoint: mean survival time, dose: 200.0 mg/kg/injection, schedule: Q04DX003 (ip), vehicle: other) 106 % of control; (endpoint: mean survival time, dose: 400.0 mg/kg/injection, schedule: Q04DX003 (ip), vehicle: other) 109 % of control.
As to `COc1cc(OC)c(NC(=O)Nc2ccc(Nc3ccccc3)cc2)cc1Cl`, the T/C by setting is: under setting [15], 90 % of control; under setting [9], 94 % of control; under setting [10], 90 % of control.
Consider `Cc1ccc(S(=O)(=O)OC2C(COCC(=O)O)OC3OC(C)(C)OC32)cc1` (stereo not drawn), for which the T/C by setting is: under setting [9], 95 % of control; under setting [3], 98 % of control; under setting [10], 93 % of control; under setting [4], 101 % of control; under setting [11], 90 % of control; under setting [8], 93 % of control.
`O=C1C=CC(=O)N1c1ccc(Oc2ccc(Cl)cc2)cc1`: the T/C is, setting by setting: under setting [15], 103 % of control; under setting [9], 107 % of control; under setting [10], 88 % of control.
As to `COc1cc(C(=O)NCCCCCC(=O)O)cc(OC)c1OC`, the T/C was 91 % of control under setting [12]; 95 % of control under setting [13]; 88 % of control (endpoint: mean survival time, dose: 400.0 mg/kg/injection, schedule: Q04DX002 (ip), vehicle: saline with Tween-80).
On to `N=C(N)N1CCc2ccccc2C1`, for which the T/C by setting is: (endpoint: mean survival time, dose: 18.8 mg/kg/injection, schedule: Q01DX009 (ip), vehicle: saline) 103 % of control; (endpoint: mean survival time, dose: 37.5 mg/kg/injection, schedule: Q01DX009 (ip), vehicle: saline) 98 % of control; under setting [16], 97 % of control; (endpoint: mean survival time, dose: 75.0 mg/kg/injection, schedule: Q01DX009 (ip), vehicle: saline) 103 % of control.
As to `O=C(NCCCl)Nc1ccccc1Cl`, the T/C reads like this: under setting [5], 90 % of control; under setting [1], 94 % of control; under setting [2], 98 % of control.
`C/C(=N\NC(N)=S)c1ccc2cc3c(cc2c1)OCO3`: under setting [16], the T/C was 119 % of control.
`c1ccc2c(c1)sc1cc3c(cc12)CCCC3`: the T/C by setting is: (endpoint: mean survival time, dose: 7.9 mg/kg/injection, schedule: Q04DX003 (ip), vehicle: other) 93 % of control; (endpoint: mean survival time, dose: 15.7 mg/kg/injection, schedule: Q04DX003 (ip), vehicle: other) 93 % of control; (endpoint: mean survival time, dose: 31.3 mg/kg/injection, schedule: Q04DX003 (ip), vehicle: other) 93 % of control; (endpoint: mean survival time, dose: 62.5 mg/kg/injection, schedule: Q04DX003 (ip), vehicle: other) 93 % of control; (endpoint: mean survival time, dose: 125.0 mg/kg/injection, schedule: Q04DX003 (ip), vehicle: other) 93 % of control.
As for `C#CCNC1=C(C)C(=O)C2=C(C1=O)[C@H](COC(N)=O)[C@]1(OC)[C@@H]3N[C@@H]3CN21`, the T/C (endpoint: mean survival time, dose: 1.5 mg/kg/injection, schedule: Q01DX001 (ip), vehicle: distilled water + Tween-80) is 112 % of control; the T/C (endpoint: mean survival time, dose: 3.0 mg/kg/injection, schedule: Q01DX001 (ip), vehicle: distilled water + Tween-80) is 120 % of control and 102 % of control; the T/C (endpoint: mean survival time, dose: 6.0 mg/kg/injection, schedule: Q01DX001 (ip), vehicle: distilled water + Tween-80) is 110 % of control; the T/C (endpoint: mean survival time, dose: 24.0 mg/kg/injection, schedule: Q01DX001 (ip), vehicle: distilled water + Tween-80) is 186 % of control; the T/C (endpoint: mean survival time, dose: 48.0 mg/kg/injection, schedule: Q01DX001 (ip), vehicle: distilled water + Tween-80) is 87 % of control; the T/C (endpoint: median survival time, dose: 6.0 mg/kg/injection, schedule: Q01DX009 (ip), vehicle: distilled water + Tween-80) was 166 % of control. Moreover, the T/C is 178 % of control (endpoint: median survival time, dose: 6.25 mg/kg/injection, schedule: Q01DX009 (ip), vehicle: distilled water + Tween-80); 101 % of control (endpoint: median survival time, dose: 12.5 mg/kg/injection, schedule: Q01DX009 (ip), vehicle: distilled water + Tween-80); 92 % of control (endpoint: median survival time, dose: 25.0 mg/kg/injection, schedule: Q01DX009 (ip), vehicle: distilled water + Tween-80).
With `CCCCNC(C)(C)C(SSC(c1cccs1)C(C)(C)NCCCC)c1cccs1` (stereo not drawn), the T/C by setting is: under setting [6], 97 % of control; under setting [7], 101 % of control; under setting [3], 98 % of control.
Take `O=C(Nc1cc(Cl)c(Cl)cc1Cl)C1CC1`: the T/C is 119 % of control under setting [15], 101 % of control under setting [9] and 101 % of control under setting [10].
With `COc1ccccc1NC(=O)c1ccccc1`, the T/C runs as follows: under setting [9], 98 % of control; under setting [10], 114 % of control; under setting [11], 104 % of control.
As for `CS(=O)(=O)OCCn1c(=O)n(CCOS(C)(=O)=O)c(=O)n(CCOS(C)(=O)=O)c1=O`, the T/C reads like this: under setting [3], 102 % of control; under setting [4], 98 % of control; under setting [8], 93 % of control.
In the case of `CCN(CC)CCCNC1=C(Cl)C(=O)c2ccccc2C1=O`, the T/C by setting is: (endpoint: mean survival time, dose: 6.25 mg/kg/injection, schedule: Q01DX009 (ip), vehicle: saline with Tween-80) 100 % of control; (endpoint: mean survival time, dose: 12.5 mg/kg/injection, schedule: Q01DX009 (ip), vehicle: saline with Tween-80) 94 % of control; under setting [14], 103 % of control.
Turning to `Oc1c(C(Nc2ccccc2)c2ccccc2)ccc2cccnc12` (stereo not drawn), the T/C by setting is: (endpoint: mean survival time, dose: 100.0 mg/kg/injection, schedule: Q01DX001 (ip), vehicle: saline) 97 % of control; (endpoint: mean survival time, dose: 200.0 mg/kg/injection, schedule: Q01DX001 (ip), vehicle: saline) 97 % of control; (endpoint: mean survival time, dose: 400.0 mg/kg/injection, schedule: Q01DX001 (ip), vehicle: saline) 100 % of control.
